Measurements from ChEMBL document CHEMBL6078680, “Improving the Stability and Anti-Infective Activity of Sea Turtle AMPs Using Multiple Structural Modification Strategies” (J Med Chem, 2024).
Activity calls are given as the source filed them. No cut-off for these calls is given here. Starred links: 1 amine or outer side, 2 acyl side, 3 side chain; linkers in the order of their positions; H or OH if unused. Positions of bridges follow the written chain, without caps; N, C: chain ends. Non-standard residues stand in square brackets, D forms with d. Residues, ends and D or L forms follow the SMILES beside them. X1 = C[C@@](CCCCC=[*:3])(N[*:1])C(=O)[*:2]; hArg = N=C(N)NCCCC[C@H](N)C(=O)O

Key:
[1] = test system: Peritoneal macrophage; test: Antiinflammatory activity in mouse Peritoneal macrophage cells assessed as inhibition of LPS-induced TNF-alpha production at 20 microg/ml incubated for 6 hrs by ELISA analysis; assay type: functional, cell-based; details: dose 20.0 µg/ml
[2] = test system: Peritoneal macrophage; test: Antiinflammatory activity in mouse Peritoneal macrophage cells assessed as inhibition of LPS-induced IL-6 production at 20 microg/ml incubated for 6 hrs by ELISA analysis; assay type: functional, cell-based; details: dose 20.0 µg/ml
[3] = test system: Staphylococcus aureus; test: Antimicrobial activity against Staphylococcus aureus CMCC 26003 at 5 times MIC measured at 180 mins; assay type: functional, organism-based
[4] = test system: Peritoneal macrophage; test: Cytotoxicity against mouse Peritoneal macrophage cells assessed as survival rate at 100 microg/ml; assay type: functional; details: read-out: Survival
[5] = test system: Staphylococcus aureus; test: Antimicrobial activity against Staphylococcus aureus CMCC 26003 measured at 8 hrs in presence of mouse serum; assay type: functional, organism-based
[6] = test system: Escherichia coli; test: Antimicrobial activity against Escherichia coli ATCC 25922 measured at 8 hrs in presence of mouse serum; assay type: functional, organism-based
[7] = test system: HaCaT; test: Cytotoxicity against human HaCaT cells assessed as survival rate at 100 microg/ml; assay type: functional; details: read-out: Survival
[8] = Hemolytic activity at human Erythrocyte assessed as hemolysis at 100 microg/ml; assay type: toxicity, cell-based; details: erythrocytes, at 100 µg/mL, read-out: Activity
[9] = target: Trypsin (Homo sapiens, UniProt P07477+P07478+P35030); test: Stability of compound assessed as trypsin (unknown origin) mediated drug degradation […] measured after 24 hrs by RP-HPLC analysis; assay type: ADME, protein assay; details: read-out: Activity
[10] = test system: Peritoneal macrophage; test: Antiinflammatory activity in mouse Peritoneal macrophage cells assessed as inhibition of LPS-induced IL-6 production my measuring fold change at 20 microg/ml incubated for 6 hrs by ELISA analysis; assay type: functional; details: dose 20 µg/ml
[11] = test system: Staphylococcus aureus; test: Antimicrobial activity against Staphylococcus aureus ATCC 43300 assessed as reduction in microbial growth incubated for 18 hrs by broth microdilution method; assay type: functional
[12] = test system: Staphylococcus aureus; test: Antimicrobial activity against Staphylococcus aureus 08032706 assessed as reduction in microbial growth incubated for 18 hrs by broth microdilution method; assay type: functional
[13] = test system: Escherichia coli; test: Antimicrobial activity against Escherichia coli CMCC44102 assessed as reduction in microbial growth incubated for 18 hrs by broth microdilution method; assay type: functional
[14] = test system: Pseudomonas aeruginosa; test: Antimicrobial activity against Pseudomonas aeruginosa CMCC10104 assessed as reduction in microbial growth incubated for 18 hrs by broth microdilution method; assay type: functional
[15] = test system: Enterococcus faecalis; test: Antimicrobial activity against Enterococcus faecalis ATCC 29217 assessed as reduction in microbial growth incubated for 18 hrs by broth microdilution method; assay type: functional
[16] = test system: Staphylococcus epidermidis; test: Antimicrobial activity against Staphylococcus epidermidis assessed as reduction in microbial growth incubated for 18 hrs by broth microdilution method; assay type: functional
[17] = test system: Enterococcus faecium; test: Antimicrobial activity against Enterococcus faecium 34 assessed as reduction in microbial growth incubated for 18 hrs by broth microdilution method; assay type: functional
[18] = test system: Acinetobacter baumannii; test: Antimicrobial activity against Acinetobacter baumannii ATCC19606 assessed as reduction in microbial growth incubated for 18 hrs by broth microdilution method; assay type: functional
[19] = test system: Clostridium perfringens; test: Antimicrobial activity against Clostridium perfringens ATCC 13124 assessed as reduction in microbial growth incubated for 18 hrs by broth microdilution method; assay type: functional
[20] = test system: Salmonella enteritidis; test: Antimicrobial activity against Salmonella enterica subsp. enterica serovar Enteritidis ATCC 14028 assessed as reduction in microbial growth incubated for 18 hrs by broth microdilution method; assay type: functional
[21] = test system: Staphylococcus aureus; test: Antimicrobial activity against Staphylococcus aureus CMCC 26003 at 5 times MIC by time kill assay; assay type: functional, organism-based; details: time 180.0 min
[22] = test system: Staphylococcus aureus; test: Antimicrobial activity against Staphylococcus aureus CMCC 26003 assessed as reduction in microbial growth incubated for 18 hrs by broth microdilution method; assay type: functional
[23] = test system: Escherichia coli; test: Antimicrobial activity against Escherichia coli ATCC 25922 assessed as reduction in microbial growth incubated for 18 hrs by broth microdilution method; assay type: functional

In the case of `CC[C@H](C)[C@@H]1NC(=O)[C@H](CCCNC(=N)N)NC(=O)[C@H](CO)NC(=O)[C@@H](NC(=O)[C@H](Cc2c[nH]cn2)NC(=O)[C@H](CCCNC(=N)N)NC(=O)[C@H](CC(C)C)NC(=O)[C@@H](NC(=O)[C@H](CCCNC(=N)N)NC(=O)CNC(=O)[C@H](CC(C)C)NC(=O)[C@H](CCC(N)=O)NC(=O)[C@H](CCCCN)NC(=O)[C@H](CCCNC(=N)N)NC(=O)[C@@H](NC(=O)[C@H](CCCCN)NC(=O)[C@H](CCCCN)NC(=O)[C@@H](N)Cc2ccccc2)C(C)C)C(C)C)CSSC[C@@H](C(=O)O)NC(=O)[C@H](Cc2ccccc2)NC(=O)[C@H](CCCNC(=N)N)NC(=O)[C@H](CCSC)NC(=O)[C@H](CCCNC(=N)N)NC(=O)CNC(=O)CNC(=O)[C@H](C(C)C)NC(=O)[C@H]([C@@H](C)O)NC1=O` (H-FKKVRKQLGRVLRHCSRITVGGRMRFC-OH; disulfide 15-27), the Activity [1] is reported as “Active”, the Activity [2] is reported as “Active” and the Activity [3] is reported as “inactive”. The viability at 100 µg/mL [4] was over 80%, the Activity [5] was “inactive” and the Activity [6] was “inactive”. For the same compound, the viability at 100 µg/mL [7] was over 80% and the hemolysis at 100 microg/ml [8] was under 5%.

With `CC[C@H](C)[C@H](NC(=O)[C@H](CCCCNC(=N)N)NC(=O)[C@H](CO)NC(=O)[C@H](Cc1c[nH]cn1)NC(=O)[C@H](CCCCNC(=N)N)NC(=O)[C@H](CC(C)C)NC(=O)[C@@H](NC(=O)[C@H](CCCCNC(=N)N)NC(=O)CNC(=O)[C@H](CC(C)C)NC(=O)[C@H](CCC(N)=O)NC(=O)[C@H](CCCCNC(=N)N)NC(=O)[C@H](CCCCNC(=N)N)NC(=O)[C@@H](NC(=O)[C@H](CCCCNC(=N)N)NC(=O)[C@H](CCCCNC(=N)N)NC(=O)[C@@H](N)Cc1ccccc1)C(C)C)C(C)C)C(=O)N[C@H](C(=O)N[C@H](C(=O)NCC(=O)NCC(=O)N[C@@H](CCCCNC(=N)N)C(=O)N[C@@H](CCSC)C(=O)N[C@@H](CCCCNC(=N)N)C(=O)N[C@@H](Cc1ccccc1)C(=O)O)C(C)C)[C@@H](C)O` (H-F[hArg][hArg]V[hArg][hArg]QLG[hArg]VL[hArg]HS[hArg]ITVGG[hArg]M[hArg]F-OH) the Activity [1] was “Active”, the Activity [2] was “Active” and the Activity [3] was “inactive”. For the same compound, the metabolised at 24 h [9] was about 20% and the hemolysis at 100 microg/ml [8] was under 5%.

With `CC[C@H](C)[C@H](NC(=O)[C@H](CCCNC(=N)N)NC(=O)[C@H](CO)NC(=O)[C@H](Cc1c[nH]cn1)NC(=O)[C@H](CCCNC(=N)N)NC(=O)[C@H](CC(C)C)NC(=O)[C@@H](NC(=O)[C@H](CCCNC(=N)N)NC(=O)CNC(=O)[C@H](CC(C)C)NC(=O)[C@H](CCC(N)=O)NC(=O)[C@H](CCCCN)NC(=O)[C@]1(C)CCCC/C=C\CCCC[C@](C)(N)C(=O)N[C@@H](CCCCN)C(=O)N[C@@H](CCCCN)C(=O)N[C@@H](C(C)C)C(=O)N1)C(C)C)C(=O)N[C@H](C(=O)N[C@H](C(=O)NCC(=O)NCC(=O)N[C@@H](CCCNC(=N)N)C(=O)N[C@@H](CCSC)C(=O)N[C@@H](CCCNC(=N)N)C(=O)N[C@@H](Cc1ccccc1)C(=O)O)C(C)C)[C@@H](C)O` (H-[X1]KKV[X1]KQLGRVLRHSRITVGGRMRF-OH; staple (Z) 1-5) the Activity [1] was “Active”, the Activity [2] was “Active” and the Activity [3] was “inactive”. The “fold change (FC)” value [10] was 2 and the hemolysis at 100 microg/ml [8] was under 5%.

For `CC1(C)S[C@@H]2[C@H](NC(=O)[C@H](N)c3ccccc3)C(=O)N2[C@H]1C(=O)O` [AMPICILLIN], the MIC [11] was 9.38 µg/mL, the MIC [12] was under 0.78 µg/mL and the MIC [13] was 2.34 µg/mL. The MIC [14] was over 100 µg/mL, the MIC [15] was under 0.78 µg/mL and the MIC [16] was 2.34 µg/mL. For the same compound, the MIC [17] was under 0.78 µg/mL, the MIC [18] was over 100 µg/mL and the MIC [19] was 2.34 µg/mL. For the same compound, the MIC [20] was 1.17 µg/mL, the AC30 [21] was “Active” and the MIC [22] was under 0.78 µg/mL. The MIC [23] was 2.34 µg/mL.
